Source: US20110275707A1, “SUBSTITUTED AFPO (6-ARYL-4H-FURO[3,2-C]PYRAN-4-ONE) DERIVATIVES AS ANTI-CANCER AGENTS” (priority 2008, published 2011)

Experiments:
[1] = test system: SK-BR-3 (HER2+) human tumor cell line; experiment: Cell growth inhibition assay (SRB), SK-BR-3; type: cell-based; conditions: SK-BR-3, compared with 1
Experimental: Cell Growth Inhibition Assay. All stock cultures are grown in T-25 flasks. Freshly trypsinized cell suspensions were seeded in 96-well microliter plates with compounds added from DMSO-diluted stock. The plates were incubated for an additional 72 h after attachment and drug addition, and the assay was terminated by 10% TCA. Then, 0.4% SRB dye in 1% HOAc was added to stain the cells for 10 minutes. Unbound dye was removed by repeated washing with 1% HOAc and the plates were air dried. Bound stain was subsequently solved with 10 mM trizma base, and the absorbance read at 515 nm. Growth inhibition of 50% (GI50) is calculated as the drug concentration, which caused a 50% reduction in the net protein increase in control cells during the drug incubation. The mean ED50 is the concentration of agent that reduces cell growth by 50% under the experimental conditions and is the average from at least two independent determinations. Variation between replicates was no more than 5% of the mean. The following human tumor cell lines were used in the assay: A549 (non small cell lung cancer), ZR-75-1 (estrogen receptor positive breast cancer), MDA MB-231 (estrogen receptor negative breast cancer), SKBR-3 (estrogen receptor negative, HER-2 over-expressing breast cancer), KB (nasopharyngeal carcinoma), KB-VIN (vincristine-resistant KB subline). […]

Structure (SMILES)	melting point [°C]	potency against SK-BR-3 relative to 1 [1]
CCc1coc2cc(-c3cc(OC)cc(OC)c3)oc(=O)c12 [Compound 28, 6-(3,5-Dimethoxyphenyl)-3-ethyl-4H-furo[3,2-c]pyran-4-one]	131 to 133	
Cc1coc2cc(-c3cc(O)cc(O)c3)oc(=O)c12 [Compound 26, 6-(3,5-Dihydroxyphenyl)-3-methyl-4H-furo[3,2-c]pyran-4-one]	> 300	
COc1cc(OC)cc(-c2cc3occ(C)c3c(=S)o2)c1 [Compound 30, 6-(3,5-Dimethoxyphenyl)-3-methyl-4H-furo[3,2-c]pyran-4-thione]	147 to 149	
Cc1coc2cc(-c3ccccc3)oc(=O)c12 [Compound 9, 3-Methyl-6-phenyl-4H-furo[3,2-c]pyran-4-one]	105 to 107	
Cc1cc(C)cc(-c2cc3occ(C)c3c(=O)o2)c1 [Compound 24, 6-(3,5-Dimethylphenyl)-3-methyl-4H-furo[3,2-c]pyran-4-one]	171 to 173	
COc1cc(OC)cc(-c2cc3occ(C)c3c(=O)o2)c1 [Compound 25, 6-(3,5-Dimethoxyphenyl)-3-methyl-4H-furo[3,2-c]pyran-4-one]	153 to 155	approximately threefold
CCOc1cccc(-c2cc3occ(C)c3c(=O)o2)c1 [Compound 12, 6-(3-Ethoxyphenyl)-3-methyl-4H-furo[3,2-c]pyran-4-one]	128 to 130	
Cc1cccc(-c2cc3occ(C)c3c(=O)o2)c1 [Compound 10, 3-Methyl-6-m-tolyl-4H-furo[3,2-c]pyran-4-one]	135 to 137	
Cc1coc2cc(-c3ccc(O)c(O)c3)oc(=O)c12 [Compound 23, 6-(3,4-Dihydroxyphenyl)-3-methyl-4H-furo[3,2-c]pyran-4-one]	259 to 261	
Cc1ccc(-c2cc3occ(C)c3c(=O)o2)cc1 [Compound 16, 3-Methyl-6-p-tolyl-4H-furo[3,2-c]pyran-4-one]	153 to 155	
Cc1coc2cc(-c3ccc(O)cc3)oc(=O)c12 [Compound 18, 6-(4-Hydroxyphenyl)-3-methyl-4H-furo[3,2-c]pyran-4-one]	258 to 260	
COc1ccc(-c2cc3occ(C)c3c(=O)o2)cc1OC [Compound 22, 6-(3,4-Dimethoxyphenyl)-3-methyl-4H-furo[3,2-c]pyran-4-one]	154 to 156	
COc1cc(OC)cc(-c2cc3oc(C)c(C)c3c(=O)o2)c1 [Compound 29, 6-(3,5-Dimethoxyphenyl)-2,3-dimethyl-4H-furo[3,2-c]pyran-4-one]	163 to 165	
COc1cc(-c2cc3occ(C)c3c(=O)o2)cc(OC)c1OC [Compound 27, 3-Methyl-6-(3,4,5-trimethoxyphenyl)-4H-furo[3,2-c]pyran-4-one]	201 to 203	
Cc1coc2cc(-c3cccc(F)c3)oc(=O)c12 [Compound 14, 6-(3-Fluorophenyl)-3-methyl-4H-furo[3,2-c]pyran-4-one]	158 to 160	
COc1ccc(-c2cc3occ(C)c3c(=O)o2)cc1 [Compound 17, 6-(4-Methoxyphenyl)-3-methyl-4H-furo[3,2-c]pyran-4-one]	146 to 148	
Cc1coc2cc(-c3cccc(O)c3O)oc(=O)c12 [Compound 20, 6-(2,3-Dihydroxyphenyl)-3-methyl-4H-furo[3,2-c]pyran-4-one]	239 to 241	
Cc1ccc(-c2cc3occ(C)c3c(=O)o2)cc1C [Compound 21, 6-(3,4-Dimethylphenyl)-3-methyl-4H-furo[3,2-c]pyran-4-one]	182 to 184	
COc1cccc(-c2cc3occ(C)c3c(=O)o2)c1 [Compound 11, 6-(3-Methoxyphenyl)-3-methyl-4H-furo[3,2-c]pyran-4-one]	119 to 121	
Cc1coc2cc(-c3ccc(F)cc3)oc(=O)c12 [Compound 15, 6-(4-Fluorophenyl)-3-methyl-4H-furo[3,2-c]pyran-4-one]	175 to 177	
COc1cccc(-c2cc3occ(C)c3c(=O)o2)c1OC [Compound 19, 6-(2,3-Dimethoxyphenyl)-3-methyl-4H-furo[3,2-c]pyran-4-one]	111 to 113	
Cc1coc2cc(-c3cccc(O)c3)oc(=O)c12 [Compound 13, 6-(3-Hydroxyphenyl)-3-methyl-4H-furo[3,2-c]pyran-4-one]	225 to 227	
